According to PMC8413292, “Small-molecule polymerase inhibitor protects non-human primates from measles and reduces shedding” (Nature Communications, 2021):
Values joined by “and” are separate entries in the source; they are usually repeats but may differ in a detail not shown here. Equal values may be shown once.

System: MV/FrankfurtMain.DEU/17.11 (genotype D8)
Assay: White blood cell counts from whole blood
Format: in vivo, squirrel monkeys (Saimiri sciureus)
Conditions: for WBC Mean Diff, untreated vs. prophylactic / WBC Mean Diff, untreated vs. therapeutic (d7) / WBC Mean Diff, untreated vs. therapeutic(d3): Dunnett's multiple comparisons test; for Cells [10^3/mm^3], white blood cells / Cells/ml, white blood cells / Counted Cells (Total), white blood cells: individual animals
Description: White blood cell counts, viral load quantification in PBMCs, and quantification of neutralizing antibody titers were performed as follows: for white blood cell counts, blood was diluted 1:100 in 3% acetic acid and cells were counted using a Neubauer chamber. For viral load quantification in PBMCs, blood was centrifuged at 3000 rpm for 15 min and serum was frozen at −20 °C until further use. Red blood cell lysis was performed and the remaining PBMCs were counted using a Neubauer chamber. Viral titers in PBMCs were quantified in quadruplicates using limited dilution method and calculated as TCID50/10^6 PBMCs. Neutralizing antibody titers were quantified by incubating MeV with 2-fold serial dilutions of the respective serum for 20 min at room temperature in quadruplicates. Vero/hSLAM cells were added and incubated for 3 days at 37 °C. Neutralizing antibody titers are expressed as the reciprocal of the highest serum dilution showing no signs of infection. For virus titration from throat swabs, swabs were placed in 150 μl DMEM with 3% penicillin/streptomycin and the titer was quantified by limited dilution method.

**Q.** What does the source list for `Cn1nc(C(F)(F)F)cc1C(=O)Nc1ccc(S(=O)(=O)N2CCCC[C@H]2CCN2CCOCC2)cc1` [ERDRP-0519]?
**A.** WBC Mean Diff, untreated vs. prophylactic (Row 1 (0 dpi)): 0.14 10^3cells/mm^3; WBC Mean Diff, untreated vs. therapeutic (d7) (Row 1 (0 dpi)): 2 10^3cells/mm^3; WBC Mean Diff, untreated vs. therapeutic(d3) (Row 1 (0 dpi)): 0.75 10^3cells/mm^3; WBC Mean Diff, untreated vs. prophylactic (Row 2 (3 dpi)): 0.875 10^3cells/mm^3; WBC Mean Diff, untreated vs. therapeutic (d7) (Row 2 (3 dpi)): -2.625 10^3cells/mm^3; WBC Mean Diff, untreated vs. therapeutic(d3) (Row 2 (3 dpi)): -1.042 10^3cells/mm^3; WBC Mean Diff, untreated vs. prophylactic (Row 3 (7 dpi)): -2.333 10^3cells/mm^3; WBC Mean Diff, untreated vs. therapeutic (d7) (Row 3 (7 dpi)): -0.3333 10^3cells/mm^3; WBC Mean Diff, untreated vs. therapeutic(d3) (Row 3 (7 dpi)): -1.375 10^3cells/mm^3; WBC Mean Diff, untreated vs. prophylactic (Row 4 (10 dpi)): -1.958 10^3cells/mm^3; WBC Mean Diff, untreated vs. therapeutic (d7) (Row 4 (10 dpi)): -0.5417 10^3cells/mm^3; WBC Mean Diff, untreated vs. therapeutic(d3) (Row 4 (10 dpi)): -1.167 10^3cells/mm^3; WBC Mean Diff, untreated vs. prophylactic (Row 5 (14 dpi)): -1.375 10^3cells/mm^3; WBC Mean Diff, untreated vs. therapeutic (d7) (Row 5 (14 dpi)): -0.25 10^3cells/mm^3; WBC Mean Diff, untreated vs. therapeutic(d3) (Row 5 (14 dpi)): -4.767 10^3cells/mm^3; WBC Mean Diff, untreated vs. prophylactic (Row 6 (17 dpi)): -1.667 10^3cells/mm^3; WBC Mean Diff, untreated vs. therapeutic (d7) (Row 6 (17 dpi)): -1.333 10^3cells/mm^3; WBC Mean Diff, untreated vs. therapeutic(d3) (Row 6 (17 dpi)): -1.533 10^3cells/mm^3; WBC Mean Diff, untreated vs. prophylactic (Row 7 (21 dpi)): -1.125 10^3cells/mm^3; WBC Mean Diff, untreated vs. therapeutic (d7) (Row 7 (21 dpi)): -1.875 10^3cells/mm^3; WBC Mean Diff, untreated vs. therapeutic(d3) (Row 7 (21 dpi)): -2.402 10^3cells/mm^3; leukopenia (total white blood cell counts) (day 3 treatment group): no leukopenia was observed; total white blood cell counts (day 7 treatment group): a trend for lower total white blood cell counts, but this was not significant; leukopenia (total white blood cell counts) (prophylactic group): no leukopenia was observed; Cells [10^3/mm^3], white blood cells (prophylactic group, 0 dpi): 7.5 10^3/mm^3 and 4.5 10^3/mm^3 and 5.5 10^3/mm^3 and 2.25 10^3/mm^3 and 10.75 10^3/mm^3; Cells/ml, white blood cells (prophylactic group, 0 dpi): 4.50E+06 Cells/ml and 5.50E+06 Cells/ml and 2.25E+06 Cells/ml and 1.08E+07 Cells/ml and 7.50E+06 Cells/ml; Counted Cells (Total), white blood cells (prophylactic group, 0 dpi): 30 and 18 and 22 and 9 and 43; Cells [10^3/mm^3], white blood cells (prophylactic group, 3 dpi): 4.75 10^3/mm^3 (3×) and 4.25 10^3/mm^3 and 4 10^3/mm^3 and 7.25 10^3/mm^3; Cells/ml, white blood cells (prophylactic group, 3 dpi): 4.75E+06 Cells/ml (3×) and 4.25E+06 Cells/ml and 4.00E+06 Cells/ml and 7.25E+06 Cells/ml; Counted Cells (Total), white blood cells (prophylactic group, 3 dpi): 19 (3×) and 17 and 16 and 29; Cells [10^3/mm^3], white blood cells (prophylactic group, 7 dpi): 6 10^3/mm^3 (2×) and 7 10^3/mm^3 and 4.75 10^3/mm^3 (2×) and 6.75 10^3/mm^3; Cells/ml, white blood cells (prophylactic group, 7 dpi): 6.00E+06 Cells/ml (2×) and 7.00E+06 Cells/ml and 4.75E+06 Cells/ml (2×) and 6.75E+06 Cells/ml; Counted Cells (Total), white blood cells (prophylactic group, 7 dpi): 24 (2×) and 28 and 19 (2×) and 27; Cells [10^3/mm^3], white blood cells (prophylactic group, 10 dpi): 4.75 10^3/mm^3 (2×) and 6.5 10^3/mm^3 and 3 10^3/mm^3 and 3.75 10^3/mm^3 and 2 10^3/mm^3; Cells/ml, white blood cells (prophylactic group, 10 dpi): 4.75E+06 Cells/ml (2×) and 6.50E+06 Cells/ml and 3.00E+06 Cells/ml and 3.75E+06 Cells/ml and 2.00E+06 Cells/ml; Counted Cells (Total), white blood cells (prophylactic group, 10 dpi): 19 (2×) and 26 and 12 and 15 and 8; Cells [10^3/mm^3], white blood cells (prophylactic group, 14 dpi): 6 10^3/mm^3 and 3 10^3/mm^3 and 5 10^3/mm^3 (2×) and 3.75 10^3/mm^3 and 2.75 10^3/mm^3; Cells/ml, white blood cells (prophylactic group, 14 dpi): 3.00E+06 Cells/ml and 5.00E+06 Cells/ml (2×) and 3.75E+06 Cells/ml and 2.75E+06 Cells/ml and 6.00E+06 Cells/ml; Counted Cells (Total), white blood cells (prophylactic group, 14 dpi): 24 and 12 and 20 (2×) and 15 and 11; Cells [10^3/mm^3], white blood cells (prophylactic group, 17 dpi): 4.75 10^3/mm^3 and 5.25 10^3/mm^3 and 5.5 10^3/mm^3 and 3.25 10^3/mm^3 and 6.5 10^3/mm^3 and 2.25 10^3/mm^3; Cells/ml, white blood cells (prophylactic group, 17 dpi): 5.25E+06 Cells/ml and 5.50E+06 Cells/ml and 3.25E+06 Cells/ml and 6.50E+06 Cells/ml and 2.25E+06 Cells/ml and 4.75E+06 Cells/ml; Counted Cells (Total), white blood cells (prophylactic group, 17 dpi): 19 and 21 and 22 and 13 and 26 and 9; Cells [10^3/mm^3], white blood cells (prophylactic group, 21 dpi): 5.25 10^3/mm^3 and 3.5 10^3/mm^3 and 7.75 10^3/mm^3 and 2.25 10^3/mm^3 (2×) and 5 10^3/mm^3; Cells/ml, white blood cells (prophylactic group, 21 dpi): 3.50E+06 Cells/ml and 7.75E+06 Cells/ml and 2.25E+06 Cells/ml (2×) and 5.00E+06 Cells/ml and 5.25E+06 Cells/ml; Counted Cells (Total), white blood cells (prophylactic group, 21 dpi): 21 and 14 and 31 and 9 (2×) and 20; WBC group mean (Mean 2) (prophylactic group, Row 1 (0 dpi)): 6.11 10^3cells/mm^3; WBC group mean (Mean 2) (prophylactic group, Row 2 (3 dpi)): 4.958 10^3cells/mm^3; WBC group mean (Mean 2) (prophylactic group, Row 3 (7 dpi)): 5.875 10^3cells/mm^3; WBC group mean (Mean 2) (prophylactic group, Row 4 (10 dpi)): 4.125 10^3cells/mm^3; WBC group mean (Mean 2) (prophylactic group, Row 5 (14 dpi)): 4.25 10^3cells/mm^3
